Assay results taken from patent US6403831B1, “Substituted benzylidene indenyl formamides, acetamides and propionamides” (Cell Pathways, Inc., priority 1996, dated 2002).
Marks after values point to notes of the source that are not given here.

Columns and labels:
[1] = test system: human colon carcinoma cell line, SW-480; test: Growth inhibition, Sulforhodamine B (SRB) protein binding assay; format: cell-based; conditions: SW-480 cell line, six days continuous exposure
Method: These compounds were assayed for their growth inhibitory activity on the human colon carcinoma cell line, SW-480 obtained from ATCC (Rockville, Md.), to ascertain the degree of growth inhibition. Growth inhibition of this cell line is indicative of a benefit on precancerous lesions and neoplasms. The cell line and growth assay employed for these experiments are well characterized, and are used to evaluate the anti-neoplastic properties of NSAIDs. The assay is used by the United States National Cancer Institute in its screening program for new anti-cancer drugs.
Drug stock solutions were made in 100% DMSO then diluted with RPMI media for cell culture testing. All drug solutions were prepared fresh on the day of testing. The cultured cells were obtained at passage #99 and grown in RPMI media supplemented with 5% fetal calf serum, and 2 mM glutamine, 100 U/ml penicillin, 100 U/ml streptomycin, and 0.25 μg/ml amphotericin. The cultures were maintained in a humidified atmosphere of 95% air and 5% CO2 at 37° C. The cultures were passaged at preconfluent densities using a solution of 0.05% trypsin and 0.53 mM EDTA. Cells were plated at 1000 cells/well for 96 well flat-bottom microtiter plates.
Tumor cell growth inhibition was assessed using the Sulforhodamine B (SRB) protein binding assay. In this assay, tumor cells were plated in 96-well plates and treated with drug-containing media for six days (continuous exposure). For each plate, 6 wells were designated as no treatment controls, six wells as vehicle (0.1% DMSO) controls, and the remaining wells for drug dilutions with three wells per drug concentration. At the end of the exposure period, the cells were fixed and stained with sulforhodamine B, a protein binding dye. The dye was then solubilized, and the optical density of the resulting solution was determined on a 96-well plate reader. The mean dye intensity of the treated wells was then divided by the mean dye intensity in the control wells (6 wells of each) to determine the effect of the drug on the cells. Dye intensity is proportional to the number of cells or amount of protein per well. The resultant “percent inhibition” value then represents the degree of growth inhibition caused by the drug.
For each experiment, an IC50 value was determined and used for comparative purposes. This value is equivalent to the concentration of drug needed to inhibit tumor cell growth by 50%. IC50 values were obtained graphically by connecting the mean values for each drug concentration tested. Each experiment included at least three wells per drug concentration. Concentration was plotted on a log scale on the X-axis.

[2] = test system: SW-480 colon adenocarcinoma cells; test: Apoptosis by DNA fragmentation (Cell Death Detection ELISA plus); format: cell-based, human; conditions: SW-480 cells, 48 hrs; for EC50: by software or estimated from effective concentration range; for DNA Fragmentation FS (100 μM): fold stimulation FS=ODmax/ODveh
Method: Apoptosis was also measured based on the amount of fragmented DNA contained in cell lysates. Briefly, SW-480 colon adenocarcinoma cells were plated in 96-well microtitre plates (“MTP”) at a density of 10K cells/well in 180 μl and incubated for 24 hrs. Cells were then treated with 20 μl aliquots of appropriately diluted compound, and allowed to incubate for an additional 48 hrs.
After the incubation, samples were prepared according to the following steps. The MTP was centrifuged (15 min., 1000 rpm) and the supernatant was carefully removed by fast inversion of the MTP. The cell pellents in each well were then resuspended in ^200 μl lysis buffer and incubated for 45 min. at room temperature to lyse the cells. The lysates were then centrifuged (15 min., 1000 rpm) and 20 μl aliquots of the supernatant (=cytoplasmic fraction) were transferred into the streptavidin coated MTP for analysis. Care was taken not to shake the lysed pellets in the MTP (=cell nucleii containing high molecular weight, unfragmented DNA). Samples were analyzed immediately, because storage at 4 C or −20 C reduces the ELISA-signals.
Samples were then processed according to a DNA fragmentation assay protocol, and dose-response curves were generated based on optical density readings. Quantification of DNA was done by a commercially available photometric enzyme-immunoassay manufactured by Mannheim-Boehringer under the name “Cell Death Detection ELISA^plus”. The assay is based on a quantitative sandwich-enzyme-immunoassay-principle using mouse monoclonal antibodies directed against DNA and histones, respectively. This allows the specific determination of mono and oligonucleosomes in the cytoplasmatic fraction of cell lysates. In brief, the assay procedure is as follows. The sample (cell-lysate, serum, culture-supernatant etc.) is placed into a streptavidin-coated MTP. Subsequently, a mixture of anti-histone-biotin and anti-DNA-POD are added and incubated for 2 hours. During the incubation period, the anti-histone antibody binds to the histone-component of the nucleosomes and simultaneously fixes the immunocomplex to the streptavidin-coated MTP via its biotinylation. Additionally, the anti-DNA-POD antibody reacts with the DNA component of the nucleosomes. After removal of unbound antibodies by a washing step, the amount of nucleosomes is quantified by the POD retained in the immunocomplex. POD is determined photometrically with ABTS® (2,2′-Azino-di[3-ethylbenzthiazolin-sulfonat])* as substrate.
Fold stimulation (FS=ODmax/ODveh), an indicator of apoptotic response, was determined for each compound tested. EC50 values were determined either specifically by data analysis software, or by estimates based on the effective concentration range of each compound (ECR=min. effective dose-min. dose to peak effect). These FS and EC50 values for the tested compounds are listed above in Table 6.

[3] = test system: HT-29 human colon carcinoma cells; test: Apoptosis by morphology (acridine orange/ethidium bromide, condensed chromatin); format: cell-based; conditions: HT-29 cells
Method: Apoptosis was measured using an assay of cell death based on morphological characteristics of apoptotic cells (i.e., condensed chromatin). Drug preparation and cell culture conditions were the same as for the SRB assay described above, except that HT-29 human colon carcinoma cells were employed/Confluent cultures were established in 12.5 cm^2 flasks by plating 0.5×10^6 cells/flask. The cultures were assayed for apoptosis by fluorescent microscopy following labeling with acridine orange and ethidium bromide. Floating and attached cells were collected by trypsinization and washed three times in PBS. One ml aliquots were centrifuged (3 g). The pellet was resuspended in 25 μl media and 1 μl of a dye mixture containing 100 μg/ml acridine orange and 100 μg/ml ethidium bromide prepared in PBS and mixed gently. Ten μl of mixture was placed on a microscope slide and covered with a 22 mm^2 coverslip and examined under 40×dry objectives using epillumination and filter combination.
An observer blinded to the identity of the treatments scored at least 100 cells per sample. Apoptotic cells were identified by nuclear condensation of chromatin stained by the acridine orange or ethidium bromide.

[4] = biological target: T1, COX I (Ovis aries, UniProt P05979); test: Cyclooxygenase (COX) inhibition, purified COX; format: biochemical; conditions: purified COX from ram seminal vesicles; for COX I % Inhibition (100 μM): 100 μM test compound, arachidonic acid 100 μM; for COX I % Inhibition (values marked *): values marked *: 1000 μM test compound
T1 construct: The COX was purified form ram seminal vesicles; from tissue; host or cells: ram seminal vesicles
T1 sequence (P05979 25-600): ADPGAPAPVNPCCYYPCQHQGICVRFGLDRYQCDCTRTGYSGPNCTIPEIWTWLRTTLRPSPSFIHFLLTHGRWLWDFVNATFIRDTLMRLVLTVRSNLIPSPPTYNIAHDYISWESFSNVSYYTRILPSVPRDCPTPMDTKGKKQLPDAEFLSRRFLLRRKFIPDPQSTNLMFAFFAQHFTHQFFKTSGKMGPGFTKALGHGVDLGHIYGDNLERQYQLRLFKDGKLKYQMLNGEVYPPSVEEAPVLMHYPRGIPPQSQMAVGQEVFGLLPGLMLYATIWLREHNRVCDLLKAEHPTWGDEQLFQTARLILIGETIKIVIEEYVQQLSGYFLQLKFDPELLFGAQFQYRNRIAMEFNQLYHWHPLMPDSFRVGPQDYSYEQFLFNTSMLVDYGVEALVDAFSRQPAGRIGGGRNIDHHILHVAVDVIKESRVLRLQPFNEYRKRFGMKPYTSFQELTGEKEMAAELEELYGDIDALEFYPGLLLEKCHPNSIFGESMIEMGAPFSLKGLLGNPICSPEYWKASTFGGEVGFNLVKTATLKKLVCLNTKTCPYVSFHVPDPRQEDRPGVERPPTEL
In short: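 Ram seminal vesicle COX, purified, was incubated 2.0 min at 37° C with 100 μM arachidonic acid with or without test compounds. Reactions stopped with TCA; activity read as absorbance at 530 nm.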

Structure (SMILES) | IC50 [1] [nM] | COX I % Inhibition (100 μM) [4] [%] | COX I % Inhibition (values marked *) [4] | EC50 [2] [nM] | DNA Fragmentation FS (100 μM) [2] | Morphology % Apoptotic Cells (1 μM) [3] [%]
COc1ccccc1CNC(=O)CC1=C(C)/C(=C/c2cc(OC)c(OC)c(OC)c2)c2ccc(F)cc21 [Example 15, (Z)-5-fluoro-2-methyl-1-(3,4,5-trimethoxybenzylidene)-3-(N-2-methoxybenzyl)-indenylacetamide] | 390 | <25 | – | 300 | 2.1 | 72
COc1cc(/C=C2/C(C)=C(CC(=O)NCc3ccccc3)c3cc(F)ccc32)cc(OC)c1OC [Example 1, (Z)-5-fluoro-2-methyl-1-(3,4,5-trimethoxybenzylidene)-3-(N-Benzyl)-indenylacetamide] | 40 | <25 | – | 50 | 4.6 | 73
COc1cc(/C=C2/C(C)=C(CC(=O)N(CCC#N)Cc3ccccc3)c3cc(F)ccc32)cc(OC)c1OC [Example 37, (Z)-5-fluoro-2-methyl-1-(3,4,5-trimethoxybenzylidene)-3-(N-benzyl-N-(2-cyanoethyl))-indenylacetamide] | > 10000 | – | 38* % | > 10000 | 2.5 | <20
COc1cc(/C=C2/C(C)=C(CC(=O)NCc3ccccn3)c3cc(F)ccc32)cc(OC)c1OC [Example 48] | 500 | <25 | – | 500 | 2.5 | 63
COc1cc(/C=C2/C(C)=C(CC(=O)NCCCN(C)C)c3cc(F)ccc32)cc(OC)c1OC [Example 44, (Z)-5-fluoro-2-methyl-1-(3,4,5-trimethoxybenzylidene)-3-(N-3-dimethylaminopropyl)-idenylacetamide] | > 10000 | – | 51* % | > 10000 | 2.7 | 25
C#CCNC(=O)CC1=C(C)/C(=C/c2cc(OC)c(OC)c(OC)c2)c2ccc(F)cc21 [Example 27, (Z)-5-fluoro-2-methyl-1-(3,4,5-trimethoxybenzylidene)-3-(N-propargyl)-indenylacetamide] | 220 | <25 | – | 700 | 4 | 71
COc1cc(/C=C2/C(C)=C(CC(=O)N(CCN(C)C)Cc3ccccc3)c3cc(F)ccc32)cc(OC)c1OC [Example 36, (Z)-5-fluoro-2-methyl-1-(3,4,5-trimethoxybenzylidene)-3-(N-benzyl-N-2-dimethylaminoethyl)-indenylacetamide] | 3000 | – | 72* % | 10 | 5.3 | 22

Second part, led by results:

IC50 [1] [nM] | COX I % Inhibition (100 μM) [4] [%] | COX I % Inhibition (values marked *) [4] | Structure (SMILES) | EC50 [2] [nM] | DNA Fragmentation FS (100 μM) [2] | Morphology % Apoptotic Cells (1 μM) [3] [%]
4500 | 33.3 | – | COc1ccc(CNC(=O)CC2=C(C)/C(=C/c3cc(OC)c(OC)c(OC)c3)c3ccc(F)cc32)c(OC)c1 [Example 19, (Z)-5-fluoro-2-methyl-1-(3,4,5-trimethoxybenzylidene)-3-(N-2,4-dimethoxybenzyl)-indenylacetamide] | 7000 | 2 | <20
> 10000 | – | 98* % | COc1cc(/C=C2/C(C)=C(CC(=O)N[C@@H](O)Cc3ccccc3)c3cc(F)ccc32)cc(OC)c1OC [Example 46, (Z)-5-fluoro-2-methyl-1-(3,4,5-trimethoxybenzylidene)-3-(N-(S)-1-hydroxy-2-phenylethyl)-idenylacetamide] | > 10000 | 4.8 | 20
260 | <25 | – | COc1ccc(/C=C2/C(C)=C(CC(=O)NCc3ccccc3)c3cc(F)ccc32)c(OC)c1OC [Example 57, (Z)-5-fluoro-2-methyl-1-(2,3,4-trimethoxybenzylidene)-3-(N-benzyl)-indenylacetamide] | 300 | <2 | 73
2200 | – | 58* % | COc1cc(/C=C2/C(C)=C(CC(=O)NCc3ccccc3F)c3cc(F)ccc32)cc(OC)c1OC [Example 32, (Z)-5-fluoro-2-methyl-1-(3,4,5-trimethoxybenzylidene)-3-(N-2-fluorobenzyl)-indenylacetamide] | 320 | 2.5 | 55
